The source of these data is PubChem BioAssay (NCI).

Among the test systems are SN12C renal; 786-0 renal; MDA-MB-231 breast; DU-145 prostate; KM12 colon; SK-OV-3 ovarian; MDA-N; HS 578T breast; BT-549 breast; SK-MEL-28 melanoma; OVCAR-5 ovarian; HOP-92 NSCLC; RXF 393 renal; OVCAR-4 ovarian; LOX IMVI melanoma; SNB-75 CNS; COLO 205 colon; HCT-15 colon; SNB-19 CNS; HCT-116 colon.
Holding throughout (assay): NCI tumour cell line growth inhibition, 48 h

Molecules are shown by their SMILES.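 Five compound concentrations were applied to cells in 96-well plates for 48 hours; endpoints were derived by simple linear interpolation of the resulting dose-response curve. TGI denotes the concentration required for complete inhibition of growth.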

`COc1ccc(C2SC(N)=Nc3c2c(C)nn3C(=O)c2ccc(Cl)cc2)cc1` (stereo not given): the TGI with SN12C renal, in the experiment with 786-0 renal, in the experiment with MDA-MB-231 breast, with DU-145 prostate, in the experiment with KM12 colon and in the experiment on SK-OV-3 ovarian was above 10 µM each time. In addition, the TGI with MDA-N, in the experiment with HS 578T breast, in the experiment with BT-549 breast, in the experiment on SK-MEL-28 melanoma, in the experiment on OVCAR-5 ovarian and in the experiment on HOP-92 NSCLC was above 10 µM each time. In addition, the TGI in the experiment on RXF 393 renal, in the experiment with OVCAR-4 ovarian, with LOX IMVI melanoma, in the experiment on SNB-75 CNS, with COLO 205 colon and in the experiment on HCT-15 colon was above 10 µM throughout. The TGI with SNB-19 CNS and in the experiment with HCT-116 colon was above 10 µM each time.

`NC1=CC(C(=O)c2ccncc2)c2nc3ccccc3nc21` (stereo not given): the TGI with SN12C renal, in the experiment on 786-0 renal, with MDA-MB-231 breast, in the experiment with DU-145 prostate, in the experiment on KM12 colon and in the experiment with SK-OV-3 ovarian was above 100 µM throughout. Besides, the TGI in the experiment with MDA-N, with HS 578T breast, in the experiment on BT-549 breast, in the experiment with SK-MEL-28 melanoma, with OVCAR-5 ovarian and in the experiment on HOP-92 NSCLC was above 100 µM in each case. The TGI in the experiment on RXF 393 renal was above 100 µM; in the experiment with OVCAR-4 ovarian, above 100 µM; in the experiment with LOX IMVI melanoma it was 88.1 µM; in the experiment with SNB-75 CNS it was above 100 µM; in the experiment on COLO 205 colon, above 100 µM; in the experiment with HCT-15 colon, above 100 µM. In addition, the TGI in the experiment on SNB-19 CNS and in the experiment on HCT-116 colon was above 100 µM each time.

With `CC1=NN2C(=O)CC(=O)N=C2S1`, the TGI with SN12C renal, with 786-0 renal, with MDA-MB-231 breast, in the experiment with DU-145 prostate, in the experiment with KM12 colon and in the experiment with SK-OV-3 ovarian was above 100 µM in each case. In addition, the TGI in the experiment on MDA-N, in the experiment on HS 578T breast, with BT-549 breast, with SK-MEL-28 melanoma, in the experiment on OVCAR-5 ovarian and in the experiment with HOP-92 NSCLC was above 100 µM throughout. In addition, the TGI in the experiment on RXF 393 renal, in the experiment with OVCAR-4 ovarian, in the experiment on LOX IMVI melanoma, with SNB-75 CNS, in the experiment with COLO 205 colon and with HCT-15 colon was above 100 µM each time. In addition, the TGI with SNB-19 CNS and in the experiment on HCT-116 colon was above 100 µM throughout.

Turning to `C[C@]12CC(c3ccccc3O1)C(C#N)C(=O)N2` (stereo not given in full), the TGI with SN12C renal, in the experiment on 786-0 renal, in the experiment with MDA-MB-231 breast, in the experiment on DU-145 prostate, with KM12 colon and in the experiment on SK-OV-3 ovarian was above 100 µM in each case. Further, the TGI in the experiment on MDA-N, in the experiment on HS 578T breast, in the experiment on BT-549 breast, in the experiment with SK-MEL-28 melanoma, in the experiment with OVCAR-5 ovarian and with HOP-92 NSCLC was above 100 µM in each case. Also, the TGI in the experiment with RXF 393 renal, in the experiment with OVCAR-4 ovarian, in the experiment with LOX IMVI melanoma, in the experiment on SNB-75 CNS, in the experiment with COLO 205 colon and with HCT-15 colon was above 100 µM throughout. Also, the TGI in the experiment on SNB-19 CNS and with HCT-116 colon was above 100 µM throughout.

Take `O=C1SC(c2ccc(Cl)cc2)(c2ccc(Cl)cc2)c2ccccc21`: the TGI in the experiment with SN12C renal, with 786-0 renal, in the experiment on MDA-MB-231 breast, in the experiment on DU-145 prostate, in the experiment with KM12 colon and with SK-OV-3 ovarian was above 100 µM throughout. In addition, the TGI in the experiment on MDA-N, in the experiment on HS 578T breast, in the experiment on BT-549 breast, in the experiment with SK-MEL-28 melanoma, in the experiment on OVCAR-5 ovarian and in the experiment on HOP-92 NSCLC was above 100 µM each time. Further, the TGI in the experiment with RXF 393 renal, with OVCAR-4 ovarian, with LOX IMVI melanoma, with SNB-75 CNS, in the experiment on COLO 205 colon and in the experiment on HCT-15 colon was above 100 µM in each case. Besides, the TGI in the experiment on SNB-19 CNS was above 100 µM; with HCT-116 colon, 55.3 µM.

As for `CC1=CCC[C@@](C)(O)[C@@H]2C[C@H]3C(CSc4ccccc4)C(=O)O[C@H]3[C@@H](O2)[C@H](C)CCC1` (stereo not given in full), the TGI is above 100 µM in the experiment with SN12C renal; 67.5 µM in the experiment on 786-0 renal; above 100 µM in the experiment on MDA-MB-231 breast; 76.6 µM in the experiment with DU-145 prostate; 22.6 µM in the experiment with KM12 colon; 37.9 µM with SK-OV-3 ovarian. Further, the TGI in the experiment on MDA-N was 86.2 µM; with HS 578T breast, 56.4 µM; in the experiment with BT-549 breast, 46.2 µM; in the experiment on SK-MEL-28 melanoma, 52.9 µM; in the experiment on OVCAR-5 ovarian it was 30.7 µM; in the experiment with HOP-92 NSCLC, above 100 µM. For the same compound, the TGI in the experiment on RXF 393 renal is 30.4 µM; in the experiment on OVCAR-4 ovarian, 45 µM; in the experiment on LOX IMVI melanoma, 81.6 µM; with SNB-75 CNS, 31.1 µM; in the experiment with COLO 205 colon, 40.4 µM; in the experiment with HCT-15 colon, 67.9 µM. In addition, the TGI with SNB-19 CNS is 26.7 µM; in the experiment with HCT-116 colon, above 100 µM.

In the case of `Cc1cnc2[nH]c(-c3ccc(F)cc3)cc(=O)c2c1`, the TGI in the experiment on SN12C renal is above 100 µM; in the experiment with 786-0 renal it was above 100 µM; in the experiment with MDA-MB-231 breast, above 100 µM; with DU-145 prostate, above 100 µM; in the experiment with KM12 colon, above 100 µM; in the experiment with SK-OV-3 ovarian, above 68 µM. The TGI in the experiment with MDA-N was 8.87 µM; in the experiment on HS 578T breast it was above 100 µM; in the experiment on BT-549 breast, above 100 µM; with SK-MEL-28 melanoma it was above 100 µM; with OVCAR-5 ovarian, above 100 µM; with HOP-92 NSCLC it was above 100 µM. Also, the TGI with RXF 393 renal was above 100 µM; in the experiment on OVCAR-4 ovarian, above 100 µM; in the experiment on LOX IMVI melanoma, above 100 µM; in the experiment on SNB-75 CNS it was 62.8 µM; with COLO 205 colon it was above 52.7 µM; with HCT-15 colon it was above 100 µM. Besides, the TGI in the experiment on SNB-19 CNS and with HCT-116 colon was above 100 µM throughout.
